Experimental data from ChEMBL document CHEMBL5608141, “Identification of compartment-specific drug sensitivities in CRC organoid-stroma co-cultures” (2024).

Columns and labels:
Format in all cases: functional, Homo sapiens
Parameters in all cases: dose or concentration left out as unconfirmed
[1] = tested on: Colon cancer organoid; test: Identification of compartment-specific drug sensitivities in O06 CRC organoid-stroma F06 CAF co-cultures. Organoid is transduced with Lucferase2-P2A-EGFP lentivirus, fibroblast with Renilla-dsRed lentivirus. Dual-Glo Luciferase assay is used to report viability data.
[2] = tested on: Colon cancer organoid; test: Identification of compartment-specific drug sensitivities in O14 CRC organoid-stroma F14 CAF co-cultures. Organoid is transduced with Lucferase2-P2A-EGFP lentivirus, fibroblast with Renilla-dsRed lentivirus. Dual-Glo Luciferase assay is used to report viability data.
[3] = tested on: Colon cancer organoid; test: Identification of compartment-specific drug sensitivities in O20 CRC organoid-stroma F20 CAF co-cultures. Organoid is transduced with Lucferase2-P2A-EGFP lentivirus, fibroblast with Renilla-dsRed lentivirus. Dual-Glo Luciferase assay is used to report viability data.
[4] = Transduced with Lucferase2-P2A-EGFP lentivirus
[5] = Transduced with Renilla-dsRed lentivirus

| Compound | Cell Viability [1, 4] | Cell Viability [1, 5] | Cell Viability [2, 4] | Cell Viability [2, 5] | Cell Viability [3, 4] | Cell Viability [3, 5] |
| --- | --- | --- | --- | --- | --- | --- |
| Cc1ccc(-c2ccc3c(ccc4sc5c(c43)NC[C@@H](C)NC5=O)n2)cn1 | 100.355% | 85.371% | 77.4963% | 56.184% | 154.003% | 70.7863% |
| COc1cc(-c2cn([C@H]3CCc4c(F)cccc4N(CC(F)(F)F)C3=O)nn2)ccc1-n1cnc(C)c1 | 62.2519% | 94.2085% | 128.088% | 98.8677% | 119.382% | 109.286% |
| CN1CCN(Cc2cc(NC(=O)c3ccc4c(c3)CN(c3ccccc3)CC4)cc(C(F)(F)F)c2)CC1 | 105.854% | 147.303% | 122.837% | 90.754% | 90.0307% | 84.0381% |
| OCCn1cc(-c2ccc3c(c2)CCC3=NO)c(-c2ccncc2)n1 | 81.3359% | 109.303% | 204.013% | 111.094% | 203.673% | 70.8995% |
| Cc1ccc(C(=O)Nc2cccc(C(F)(F)F)c2)cc1Nc1nc(-c2cccnc2)nc2c1cnn2C | 60.2736% | 70.9034% | 129.491% | 76.0508% | 143.016% | 123.917% |
| Cn1cnc2c(F)c(Nc3ccc(Br)cc3Cl)c(C(=O)NOCCO)cc21 [SELUMETINIB] | 99.2613% | 98.6384% | 44.7701% | 55.8657% | 54.0546% | 152.417% |
| O=C(Nc1cccnc1)c1cc(-c2ccnc(F)c2)ccc1OCc1ccccc1 | 87.3368% | 83.1264% | 142.728% | 107.033% | 125.357% | 104.766% |
| CCS(=O)(=O)c1cc2cc(C[C@](O)(CC(C)(C)c3ccc(F)cc3C(N)=O)C(F)(F)F)[nH]c2cn1 [BI 653048] | 70.4743% | 199.02% | 130.109% | 193.347% | 85.6205% | 287.465% |
| CC1=C(C)C(=O)C(C(C)(C)CC(=O)N(CCCCSC[C@H]2O[C@@H](n3cnc4c(N)ncnc43)[C@H](O)[C@@H]2O)Cc2cccc(-c3ccc(Cl)cc3)c2)=C(C)C1=O | 117.447% | 138.552% | 65.9332% | 97.7144% | 100.369% | 114.813% |
| Cc1sc2c(c1C)C(c1ccc(Cl)cc1)=N[C@@H](CC(=O)NCCCCCCCCNC(=O)COc1cccc3c1C(=O)N(C1CCC(=O)NC1=O)C3=O)c1nnc(C)n1-2 (some centres undefined) | 5.4511% | 19.3995% | 5.905% | 10.8389% | 2.01% | 74.9854% |
| CCN1CCN(c2ccc(Nc3cc(N(C)C(=O)Nc4c(Cl)c(OC)cc(OC)c4Cl)ncn3)cc2)CC1 [INFIGRATINIB] | 0.6967% | 125.024% | 55.6946% | 110.833% | 101.232% | 52.242% |
| CCC(=O)N[C@@H]1CC[C@H](C(=O)N(C)c2ccc(-c3nc4ccccc4o3)cc2)C1 [BI 99990] | 102.864% | 119.997% | 98.8872% | 100.403% | 115.817% | 121.154% |
| C[C@H]1CCCN1Cc1nc2cc(NC(=O)c3ccc4cnccc4c3)ccc2[nH]1 | 122.515% | 131.721% | 76.6817% | 109.65% | 98.7446% | 149.477% |
| C[C@@H]1CCNC(=O)c2cc3ccc(C(=O)Nc4nc5ccccc5n4CCCN(C)C)cc3n21 | 65.6776% | 63.6239% | 75.4357% | 82.3994% | 65.8011% | 147.158% |
| CCc1cccc(CC)c1NC(=O)c1nn(C)c2c1CCc1cnc(Nc3ccc(C(=O)NC4CCN(C)CC4)cc3OC(F)(F)F)nc1-2 | 8.756% | 150.393% | 11.9525% | 117.182% | 94.5822% | 107.437% |
| C[C@@]1(Cc2ccc(C#N)cc2)C(=O)N(c2cc(Cl)cc(Cl)c2)c2ncc(C(=O)NC3(c4nc(C5CCC5)no4)CC3)n21 [BI 9446] | 82.5213% | 98.3986% | 102.867% | 111.855% | 72.3076% | 136.535% |
| CCOc1cc(N2CCC(O)CC2)ccc1Nc1ncc2c(n1)N(C)c1ccccc1C(=O)N2C | 85.6087% | 128.987% | 113.616% | 107.398% | 81.3429% | 117.331% |
| Cc1c(Oc2ccc(F)cc2)c(OC(C)C)nn1-c1ccc(C2CC2)cn1 [IPP/CNRS-A019] | 92.46% | 90.9232% | 67.4569% | 79.6967% | 91.0165% | 118.396% |
| C[C@@H](Oc1cc(-n2cnc3ccc(CN4CCN(C)CC4)cc32)sc1C(N)=O)c1ccccc1C(F)(F)F [GSK-461364] | 8.2073% | 127.3% | 14.2355% | 96.4779% | 35.9092% | 141.481% |
| CN([C@@H]1CCc2c(CC(=O)O)c3cc(S(C)(=O)=O)ccc3n2C1)S(=O)(=O)c1ccc(F)cc1 [CRTH2-negative-control] | 78.3965% | 74.5251% | 107.65% | 94.275% | 107.561% | 126.69% |
| CCC(=O)Nc1cccc(Oc2nc(Nc3ccc(N4CCN(C)CC4)cc3OC)ncc2Cl)c1 | 92.8013% | 94.5997% | 157.299% | 90.5023% | 125.304% | 105.023% |
| O=C(NNS(=O)(=O)c1ccccc1)c1cc(-c2ccnnc2)ccc1F [WM-2474] | 92.1572% | 93.3483% | 98.8891% | 109.079% | 104.944% | 126.08% |
| CCn1cc(-c2ccnc3[nH]c(-c4cccc(CN(C)C)c4)cc23)c(-c2ccc(NC(=O)N(C)C)cc2)n1 [GSK-1070916] | 8.589% | 116.692% | 13.7383% | 103.854% | 9.494% | 207.056% |
| C[C@H](c1ccnc(Nc2nc3ccc(-c4cc(N(C)C)ncn4)cc3[nH]2)c1)N1CCN(C(=O)CC(F)(F)F)CC1 [BAY-985] | 137.072% | 142.411% | 130.529% | 136.274% | 129.711% | 125.86% |
